We go through 5 molecules from patent US12343337B2, “Compounds for increasing neural plasticity” (THE REGENTS OF THE UNIVERSITY OF CALIFORNIA, priority 2016, dated 2025).

In assay [1] the test system is cultured embryonic rat cortical neurons. Briefly: Spinogenesis experiments (spine density) in cortical cultures. Type of assay: cell-based. The settings on record: cortical cultures treated for 24 h at DIV 18; FIG. 1E and FIG. 2E. As to the method:
Primary cortical cultures were prepared using tissue from embryonic day 18 (E18) Sprague Dawley rats. Cells were plated at various densities on poly-D-lysine coated plates depending on the specific experiment (vide infra). Plating media consisted of 10% heat-inactivated FBS (Life Technologies), 1% penicillin-streptomycin (Life Technologies), and 0.5 mM glutamine (Life Technologies) in Neurobasal (Life Technologies). After 15-24 h, the media was removed and exchanged for replacement media containing 1×B27 supplement (Life Technologies), 1% penicillin-streptomycin, 0.5 mM glutamine, 12.5 μM glutamate, and Neurobasal. After 96 h, 50% of the media was removed and replaced with feed media containing 1×B27 supplement, 1% penicillin-streptomycin, and 0.5 mM glutamine. Once per week until the cultures had reached sufficient maturity for experiments, 50% of the culture media was removed and replaced with feed media, with an additional 20% by volume being added to account for evaporation. For experiments using antagonists/inhibitors, cells were pretreated with ANA-12 (10 μM), rapamycin (100 nM), and ketanserin (100 μM) for 10 min prior to the addition of test compounds. […]
Cells were plated at a density of 35,000 cells/well on glass coverslips in 24 well plates. […] Dendritic spines were counted manually by a trained experimenter who was blinded to the treatment conditions.

For assay [2] the test system is unchanged. The assay is described as follows: Neuritogenesis experiments (Sholl analysis) in cortical cultures. Type of assay: cell-based. As to conditions: for promoting neuritogenesis: cultured embryonic rat cortical neurons, DIV6, 10 μM (0.1% DMSO) unless noted otherwise, 72 h treatment, FIGS. 1B-1D, 2B-2D. The protocol: (§1) Primary cortical cultures were prepared using tissue from embryonic day 18 (E18) Sprague Dawley rats. Cells were plated at various densities on poly-D-lysine coated plates depending on the specific experiment (vide infra). Plating media consisted of 10% heat-inactivated FBS (Life Technologies), 1% penicillin-streptomycin (Life Technologies), and 0.5 mM glutamine (Life Technologies) in Neurobasal (Life Technologies). After 15-24 h, the media was removed and exchanged for replacement media containing 1×B27 supplement (Life Technologies), 1% penicillin-streptomycin, 0.5 mM glutamine, 12.5 μM glutamate, and Neurobasal. After 96 h, 50% of the media was removed and replaced with feed media containing 1×B27 supplement, 1% penicillin-streptomycin, and 0.5 mM glutamine. Once per week until the cultures had reached sufficient maturity for experiments, 50% of the culture media was removed and replaced with feed media, with an additional 20% by volume being added to account for evaporation. For experiments using antagonists/inhibitors, cells were pretreated with ANA-12 (10 μM), rapamycin (100 nM), and ketanserin (100 μM) for 10 min prior to the addition of test compounds. The final DMSO concentration of these experiments was 0.2%. The neurons used in each cellular experiment were taken from at least two different treatment wells and the wells were randomized to account for plate effects. All of the cellular experiments were replicated on at least two occasions by two or more experimenters.
All compounds were dissolved in DMSO and diluted 1:1000 with the exception that BDNF was dissolved in water. Cells were treated with the compound at a final concentration of 90 μM (0.1% DMSO) while all other compounds were treated at 10 μM (0.1% DMSO) unless noted otherwise. For in vivo studies, the compound was dissolved in sterile 0.9% saline and administered intraperitoneally at a dose of 10 mg/kg and an injection volume of 10 mL/kg.
After 3 days in vitro (DIV 3), approximately 50,000 cells/well in poly-D-lysine coated 24 well plates were treated. Treatment was accomplished by first diluting DMSO stock solutions of compounds 1:10 in Neurobasal followed by a 1:100 dilution into each well (total dilution=1:1000). After 72 h, cells were fixed by removing 80% of the media and replacing it with a volume of 4% aqueous paraformaldehyde (Alfa Aesar) equal to 50% of the working volume of the well. Then, the cells were allowed to sit for 20 min at room temperature before the fixative was aspirated and each well washed twice with DPBS. Cells were permeabilized using 0.2% Triton X-100 (ThermoFisher) in DPBS for 20 minutes at room temperature without shaking. Plates were blocked with antibody diluting buffer (ADB) containing 2% bovine serum albumin (BSA) in DPBS for 1 h at room temperature. Then, plates were incubated overnight at 4° C. with gentle shaking in ADB and a chicken anti-MAP2 antibody (1:10,000; EnCor, CPCA-MAP2). The next day, plates were washed three times with DPBS and once with 2% ADB in DPBS. Plates were incubated for 1 h at room temperature in ADB containing an anti-chicken IgG secondary antibody conjugated to Alexa Fluor 488 (Life Technologies, 1:500) and washed five times with DPBS. After the final wash, 500 μL of DPBS was added per well and imaged on a Leica inverted epifluorescence microscope at 40× magnification. Images were analyzed using the Simple Neurite Tracer and Sholl analysis plug-ins for ImageJ Fiji (version 1.51N). All images were taken and analyzed by an experimenter blinded to treatment conditions.

In a further assay the test system is BDNF. Briefly: BDNF ELISA assay in cortical neurons. Type of assay: cell-based, rat. The protocol: as §1
Cortical cultures were grown in 6-well plates (600,000 cells per well). At DIV 17-18, all media was removed and replaced with fresh Neurobasal. After 4 h, each well was treated with compound dissolved in DMSO (1:1000) for 24 h. After the treatment period, the media was removed and the cells washed once with ice-cold DPBS. To each well was added 200 μL of Cell Extraction Buffer (Life Technologies) supplemented with cOmplete and PhoSTOP inhibitors, and incubated on ice for 5-10 min. Plates were scrapped and the contents collected. […]

Consider `CN(C)CCc1c[nH]c2ccc(Cn3cncn3)cc12` [rizatriptan, Rizatriptan], for which the “spinogenesis in cortical cultures” value in assay [1] is listed as “increased spinogenesis”. Further, the promoting neuritogenesis entry in assay [2] was “capable of robustly promoting neuritogenesis”.
On to `CN(C)CCc1c[nH]c2cc(F)ccc12` [6-fluoro-DMT, 6-fluoro-N,N-dimethyltryptamine], for which the promoting neuritogenesis result in assay [2] is listed as “capable of robustly promoting neuritogenesis”.
As for `CCN(CC)C(=O)N[C@H]1C=C2c3cccc4[nH]cc(c34)C[C@H]2N(C)C1` [lisuride, Lisuride], the “spinogenesis in cortical cultures” value in assay [1] is “increased spinogenesis”. For the same molecule, the “dose-response of effects on neurite outgrowth” value in assay [2] (cortical cultures, dose response was not clearly observed, FIGS. 3A and 3B) is “exhibiting activity across 8-orders of magnitude into the femtomolar range”. The promoting neuritogenesis result in assay [2] is given as “capable of robustly promoting neuritogenesis”. The “BDNF protein levels in the presence of TrkB antagonist ANA-12” value in the assay on BDNF (cortical cultures, 24 h treatment, with ANA-12, FIG. 6) was “negates the increase in BDNF protein levels”. For the same molecule, in the assay on BDNF (cortical neurons, after 24 hours treatment, ELISA, FIG. 5), the “protein levels of BDNF protein” value is recorded as “increased the protein levels of BDNF protein”. In the assay on BDNF (cultured cortical neurons co-treated with BD1063, 24 hour treatment, FIG. 7), the “translation of BDNF on co-treatment with sigma antagonist BD1063” value is “completely blocked the increased translation of BDNF”.
Take `COc1ccc2c(CCN(C)C)c[nH]c2c1` [6-methoxy-DMT, 6-methoxy-N,N-dimethyltryptamine]: the promoting neuritogenesis result in assay [2] was “capable of robustly promoting neuritogenesis”.

B1: BDNF: brain-derived neurotrophic factor, recombinant neurotrophin, Sigma-Aldrich (protein, UniProt P23560 19-247, looked up)
Neurotrophic factor BDNF …: APMKEANIRGQGGLAYPGVRTHGTLESVNGPKAGSRGLTSLADTFEHVIEELLDEDQKVRPNEENNKDADLYTSRVMLSSQVPLEPPLLFLLEEYKNYLDAANMSMRVRRHSDPARRGELSVCDSISEWVTAADKKTAVDMSGGTVTVLEKVPVSKGQLKQYFYETKCNPMGYTKEGCRGIDKRHWNSQCRTTQSYVRALTMDSKKRIGWRFIRIDTSCVCTLTIKRGR
In the case of B1, the “dose response of effects on dendritic arbor complexity” value in assay [2] (recombinant BDNF 50 ng/mL vs 100-fold dilution, FIG. 4) is listed as “significantly less potent following a 100-fold dilution”.
